Tested on: not listed separately
Assay: Physical properties of the D-aminoacylase (optimal pH, optimal temperature, thermal stability)
Assay type: physicochemical
Details: not given

Row | Molecule | Optimal temperature
1 | D-aminoacylase: the D-aminoacylase according to this invention, whose physical properties are listed; source strain not stated at that place (protein, listed as Methylobacterium mesophilicum) MTDSTRKHDLIIRGGTVIDGRRTPRFRADVAVRDGRLSAIGDLADHRAAQEIDATGRIVAPGFIDSHTHDDQAVLSQPQIPFKVSQGVTTVIAGNCGISAAPLRRDMDLPMPLNLIDVPAEERFTRFADYLDALRARPSSVNVAAMVGHSTLRAVTMPALDREANSEEIARMRALVQEAMDAGAIGVSTGTFYPPAVKATTEEIIEVCRPLTAAGGLYVTHMRDESDQVMTSLEETFRIGRALDVPVVVSHHKVQNTPNFGKSQVTLPFIREAMQRQRVCLDCYPYTAGSTMIRADRGMLEGRVLIAESLPHPECAGRDLDDIARDWGVDRVEAARRLQPGSAIYFLMDEGDVQRILAFDDTMIGSDGIPVGSKPHPRLWGTFPRVLGHYSRDVGLFPLETAVWKMTGLTARNFGLHGRGTLEAGQAADIVVFDAGTVRDAADYAEPTRPAEGIDAVIVNGAITWQGGQHTGARQGQVIRRQAAPSH | 60° C.;

Same assay, conditions: after heating at 40° C. for 20 hours

Row | Molecule | Thermal stability: remaining activity [% remaining activity]
2 | D-aminoacylase: the D-aminoacylase according to this invention, whose physical properties are listed; source strain not stated at that place (protein, listed as Methylobacterium mesophilicum) MTDSTRKHDLIIRGGTVIDGRRTPRFRADVAVRDGRLSAIGDLADHRAAQEIDATGRIVAPGFIDSHTHDDQAVLSQPQIPFKVSQGVTTVIAGNCGISAAPLRRDMDLPMPLNLIDVPAEERFTRFADYLDALRARPSSVNVAAMVGHSTLRAVTMPALDREANSEEIARMRALVQEAMDAGAIGVSTGTFYPPAVKATTEEIIEVCRPLTAAGGLYVTHMRDESDQVMTSLEETFRIGRALDVPVVVSHHKVQNTPNFGKSQVTLPFIREAMQRQRVCLDCYPYTAGSTMIRADRGMLEGRVLIAESLPHPECAGRDLDDIARDWGVDRVEAARRLQPGSAIYFLMDEGDVQRILAFDDTMIGSDGIPVGSKPHPRLWGTFPRVLGHYSRDVGLFPLETAVWKMTGLTARNFGLHGRGTLEAGQAADIVVFDAGTVRDAADYAEPTRPAEGIDAVIVNGAITWQGGQHTGARQGQVIRRQAAPSH | 80

Tested on: D-aminoacylase derived from Methylobacterium mesophilicum MT 10894 (FERM BP-7856)
Assay: Substrate specificity of E. coli transformed by the DNA containing the D-aminoacylase gene to N-acetyl-DL-amino acids
Assay type: biochemical
Details: substrate 5 g/L, 40° C., 16 hours; activity with N-acetyl-DL-tryptophan as substrate = 100
Protocol: Reactivity and an optical purity were evaluated by analyzing a D-amino acid produced in a reaction and a remaining N-acylamino acid by high performance liquid chromatography (column: CROWNPAK CR(−); Daicel Chemical Industries, Ltd.); column temperature: 40° C.; mobile phase: HClO4 aq. pH 1.5 and 0 to 15% methanol (v/v); flow rate 0.8 mL/min, detection: 210 nm).
E. coli transformed by the plasmid shown in FIG. 1 in Example 7 was subject to shaking culture in an LB medium containing ampicillin (50 μg/mL) at 37° C. overnight. After culturing, the bacterial cells were harvested by centrifugation and washed with a 0.1 M phosphate buffer (pH 7.8). The bacterial cells were suspended in a 0.1 M phosphate buffer (pH 7.8).
Substrate specificity of E. coli transformed by the plasmid shown in FIG. 1 in Example 7 was compared for N-acetyl-DL-amino acids. In this example, the reaction was conducted at a substrate N-acetyl-DL-amino acid concentration of 5 g/L at 40° C. for 16 hours. Relative activities to a variety of N-acetyl-DL-amino acids together with optical purities and reaction yields were determined, assuming that D-aminoacylase activity was 100 when N-acetyl-DL-tryptophan was a substrate.

Row | Molecule | Relative activity (%)
3 | CC(=O)NC(Cc1ccc(Cl)cc1)C(=O)O (racemic) [N-acetyl-DL-4-chlorophenylalanine] | 89
4 | CC(=O)NC(Cc1ccc(F)cc1)C(=O)O (racemic) [N-acetyl-DL-4-fluorophenylalanine] | 99
5 | CC(=O)NC(Cc1c[nH]c2ccc(O)cc12)C(=O)O (racemic) [N-acetyl-DL-5-hydroxytryptophan] | 80
6 | CC(=O)NC(CCc1ccccc1)C(=O)O (racemic) [N-acetyl-DL-homophenylalanine] | 45
7 | CC(=O)NC(COCc1ccccc1)C(=O)O (racemic) [N-acetyl-DL-o-benzylserine] | 30
8 | CC(=O)NC(Cc1ccccc1)C(=O)O (racemic) [N-acetyl-DL-phenylalanine] | 104
9 | CC(=O)NC(Cc1c[nH]c2ccccc12)C(=O)O (racemic) [N-acetyl-DL-tryptophan] | 100
10 | CC(=O)NC(Cc1ccc(O)cc1)C(=O)O (racemic) [N-acetyl-DL-tyrosine] | 67
